Results taken from patent US6083496A, “Polyamine transport inhibitors” (priority 1996, dated 2000).
Like-named read-outs stand apart in the source and are kept apart here.

Assays:
[1] = tested on: ZR-75-1 cells; test: Reversal of DFMO-induced growth inhibition by exogenous spermidine; type: cell-based, human; settings: 11 days
Protocol: Effect of Inhibitors on Cell Proliferation--For growth studies, ZR-75-1 cells were cultured in MEZR medium or in phenol red-free RPMI 1640 supplemented with 2 mM L-glutamine, 1 mM sodium pyruvate, 15 mM Hepes, antibiotics, 1 nM 17β-estradiol, 0.5 μg of bovine insulin per ml and 5% (v/v) charcoal-treated fetal bovine serum (SD medium), as indicated in the text. When polyamines or polyamine analogs were added to serum-containing media, 1 mM aminoguanidine was added to inhibit bovine serum amine oxidase (BSAO) activity (Morgan, D. M. L. 1989. in The Physiology of Polyamines (Bachrach, U., and Helmer, Y. M. eds) Vol. I, pp. 203-229, CRC Press, Boca Raton). The effect of the transport inhibitors on cell growth was measured by incubating ZR-75-1 cells for 11 days in medium supplemental with antagonist, polyamines and/or 1 mM DFMO as indicated, followed by colorimetric determination of DNA content with 3,5-diaminobenzaic acid (Simard, J., Dauvois, S., Haagensen, D. E., Levesque, C., Merand, Y. and Labrie, F. 1990. Endocrinology 126: 3223-3231). Medium was changed every other day in these experiments because of the slow reaction of the compound with an unknown component present in the IMEM and RPMI 1640 medium formulation.

[2] = tested on: polyamine transporter; settings: ZR-75-1 cells; compound as its own substrate; read-out: Km, spermidine transport; cited from earlier work
[3] = tested on: ZR-75-1 cells; settings: background; cited from earlier work
[4] = secondary amino group of the spermine head; cited from earlier work
[5] = tested on: polyamine transporter; test: Putrescine uptake ([3H]putrescine) in ZR-75-1 cells; type: cell-based, human; settings: FIG. 3
Protocol: (§1) J. Biol. […] Endocrinology 126: 3223-3231). […] Cell cultures were then washed twice with 1 ml PBS containing 5.7 mM sym-norspermidine. Cells were then lysed with 200-μl aliquot of 1 N NaOH and incubated for 30 minutes at 60° C. After neutralization with 200 μl of 1 N HCl, radioactivity was determined from a 250-μl of the cell lysate by scintillation counting. Uptake activity was expressed per amount of total cellular protein as determined by the method of Bradford (Bradford, M. M. 1976. Anal. Biochem. 72: 248-254). Non-specific binding of radioactive substrate was similarly determined in parallel for both cell lines after a 15 second-incubation with 400 μl of ice-cold uptake solution. […] Km, Ki and Vmax values were then estimated by Line-weaver-Burke analysis. For competitive inhibitors, Ki values were also estimated by measuring uptake activity in the presence of logarithmically increasing concentrations of antagonist, and using the Cheng-Prusoff equation (Cheng. Y. -C. and Prusoff, W. H. 1973. Biochem. Pharmacol. 22: 3099-3108) by iterative curve fitting for a sigmoidal curve. For mixed competitive/noncompetitive inhibition, two methods were used to calculate kinetic constants. […] C. 1976. Enzymes, 3rd Ed., Academic Press, San Diego, Calif.). […] C. 1976. Enzymes, 3rd Ed., Academic Press, San Diego, Calif.).

[6] = tested on: ZR-75-1 cells; test: Effect of inhibitors on cell proliferation (11 days, DNA content); type: cell-based, human; settings: 11 days
Protocol: Effect of Inhibitors on Cell Proliferation--For growth studies, ZR-75-1 cells were cultured in MEZR medium or in phenol red-free RPMI 1640 supplemented with 2 mM L-glutamine, 1 mM sodium pyruvate, 15 mM Hepes, antibiotics, 1 nM 17β-estradiol, 0.5 μg of bovine insulin per ml and 5% (v/v) charcoal-treated fetal bovine serum (SD medium), as indicated in the text. […] M. L. 1989. in The Physiology of Polyamines (Bachrach, U., and Helmer, Y. M. eds) Vol. I, pp. 203-229, CRC Press, Boca Raton). […] Endocrinology 126: 3223-3231). Medium was changed every other day in these experiments because of the slow reaction of the compound with an unknown component present in the IMEM and RPMI 1640 medium formulation.

[7] = tested on: polyamine transporter; test: Spermidine uptake ([3H]spermidine) in ZR-75-1 cells; type: cell-based, human; settings: FIG. 3
Protocol: as §1

[8] = tested on: polyamine transporter; settings: ZR-75-1 cells; compound as its own substrate; read-out: Km, spermine transport; cited from earlier work

Q: With `NCCCCNCCCN` [Spermidine, N-[3-aminopropyl]-1,4-diaminobutane] as the compound, how does the “Concentration completely reversing growth inhibition by 1 mM DFMO” value [1] read?
A: The value was 0.3 µM.

Q: What about the “Inhibition of cell proliferation” value ([1]; concentrations superior to 0.3 μM, FIG. 8) of the same compound?
A: Its value is “up to 20%”.

Q: What about the Km [2] of the same compound?
A: The Km was 490 ± 150 nM.

Q: And the “Concentration completely reversing DFMO-induced growth inhibition” value [3]?
A: Its value is 300 nM.

Q: With `NCCCNCCCCNCCCN` [Spermine, N,N'-bis-[3-aminopropyl]-1,4-butane-diamine, reference compound] as the compound, how does the pKa [4] read?
A: The pKa was 8.9-9.8.

Q: And the “Ability to compete against [3H]putrescine uptake, fold higher than that of DESC” value [5]?
A: The value was “about 7 fold”.

Q: And the “Effect on cell growth” value ([6]; 50 μM)?
A: Its value is “acutely cytotoxic”.

Q: What about the “Influence of 1 mM aminoguanidine on the growth effect of the compound” value ([6]; spermine 50 μM, MESC 200 μM, DEASC 50 μM) of the same compound?
A: The value was “only partly prevented by aminoguanidine”.

Q: What about the “Ability to compete against [3H]spermidine uptake, fold higher than that of DESC” value [7] of the same compound?
A: The value was “about 7 fold”.

Q: What about the Km [8] of the same compound?
A: The Km was 200 ± 60 nM.
